What was measured:
Format in all cases: in vivo
[1] = test system: Fmr1-KO mice; test: Homing behaviour test (social discrimination, cognition); details: 13 post-natal days; for latency time (homing test): 0.175 mg/kg BW intraperitoneal, FIG. 2A
Description: The experiments were performed following the ARRIVE (Animals in Research: Reporting In Vivo Experiments) guidelines. Fmr1-knockout (KO) and WT mice on a C57BL/6J congenic background were obtained from Prof. R. Willemsen. All animals were generated and housed in groups of 4 in standard laboratory conditions (22° C., 55±10% humidity, 12-h light/12-h dark diurnal cycles) with food and water provided ad libitum. Experimental testing was performed between 12:00 and 16:30 each day during the 12-h light period. Only male mice and rats were used. Animal care was conducted in accordance with the European Community Directive 2010/63/EU. The experiments were approved by the local ethics committee (Comité d′Ethique en Expérimentation Animale, by the French Ministry of Research. Trimeprazine and opipramol were purchased from Prestwich Library. Both molecules were diluted in DMSO at the stock concentration of 100 mM. All compounds injected intraperitoneally were administered in a volume of 1.5 ml per kg body weight at the amount indicated in the legends of each figure. Homing Behaviour Test: At PND 13, the litter was separated from the dam and kept for 30 min in a temperature-controlled holding cage. Then, each mouse pup was placed into a Plexiglas box whose floor was covered for ⅓ with bedding from the pup's home cage and for ⅔ with clean bedding. The pup was located at the side of the box covered by clean bedding, and its behaviour was videorecorded for 4 min for subsequent analysis. The following parameters were scored using the Observer 3.0 software (Noldus Information Technology): latency (s) to reach the home-cage bedding area; total time (s) spent by the pup in the nest bedding area.

[2] = test system: Fmr1-KO mice; test: Social interaction test; details: 28-30 post-natal days, 0.25 mg/kg BW intraperitoneal
Description: The experiments were performed following the ARRIVE (Animals in Research: Reporting In Vivo Experiments) guidelines. Fmr1-knockout (KO) and WT mice on a C57BL/6J congenic background were obtained from Prof. R. Willemsen. All animals were generated and housed in groups of 4 in standard laboratory conditions (22° C., 55±10% humidity, 12-h light/12-h dark diurnal cycles) with food and water provided ad libitum. Experimental testing was performed between 12:00 and 16:30 each day during the 12-h light period. Only male mice and rats were used. Animal care was conducted in accordance with the European Community Directive 2010/63/EU. The experiments were approved by the local ethics committee (Comité d'Ethique en Expérimentation Animale, by the French Ministry of Research. Trimeprazine and opipramol were purchased from Prestwich Library. Both molecules were diluted in DMSO at the stock concentration of 100 mM. All compounds injected intraperitoneally were administered in a volume of 1.5 ml per kg body weight at the amount indicated in the legends of each figure. Social Interaction Test: The 28-30-day-old mice were individually habituated to the experimental apparatus (a Plexiglas cage measuring 30×30×30 cm) for 5 min the day before testing. On the test day, the animals were isolated for 2 h before testing, to enhance their social motivation and thus facilitate the expression of social interaction during testing. The test consisted of placing 2 animals (same treatment and weight) into the test cage for 10 min. The behaviour of the animals was recorded using a video camera with zoom lens, DVD recorder and LCD monitor. Behaviour was assessed per single animal and analyzed by a trained observer who was unaware of genotype and treatment conditions using the Observer XT software (Noldus, The Netherlands). The following parameters were scored: a. Social Activities: • 1. Social sniffing: sniffing any part of the body of the partner, including the anogenital area. • 2. Following: moving in the direction of or pursuing the partner, who moves away. • 3. Mutual circle: partners are mutually sniffing each other's anogenital region, while describing tight circles with their reciprocal following movements. • 4. Pushing past: the focal animal passes between the wall of the cage and the body of the partner by pushing its own body through the narrow space available. • 5. Crawling under/over: the focal animal crawls underneath or over the partner's body, crossing it transversely from one side to the other. • 6. Social grooming: chewing and licking the fur of the partner. • 7. Social rest: the focal animal is being groomed by the partner. • 8. […] The average frequency of total social activities, quantified as number of events during the 10 min testing session, was graphed.

[3] = test system: Fmr1-KO mice; test: Novel object recognition test (working memory)
Description: The experiments were performed following the ARRIVE (Animals in Research: Reporting In Vivo Experiments) guidelines. Fmr1-knockout (KO) and WT mice on a C57BL/6J congenic background were obtained from Prof. R. Willemsen. All animals were generated and housed in groups of 4 in standard laboratory conditions (22° C., 55±10% humidity, 12-h light/12-h dark diurnal cycles) with food and water provided ad libitum. Experimental testing was performed between 12:00 and 16:30 each day during the 12-h light period. Only male mice and rats were used. Animal care was conducted in accordance with the European Community Directive 2010/63/EU. The experiments were approved by the local ethics committee (Comité d′Ethique en Expérimentation Animale, by the French Ministry of Research. Trimeprazine and opipramol were purchased from Prestwich Library. Both molecules were diluted in DMSO at the stock concentration of 100 mM. All compounds injected intraperitoneally were administered in a volume of 1.5 ml per kg body weight at the amount indicated in the legends of each figure. On day 1 and 2, mice were habituated for 10 min to the maze in which the task was performed. On the third day, mice were put back in the maze for 10 min, two identical objects were presented and the time that the mice spent exploring each object was recorded. The mice were again placed in the maze 5 minutes later for 10 min, one of the familiar objects was replaced with a novel object and the total time spent exploring each of the two objects (novel and familiar) was computed. Object exploration was defined as the orientation of the nose to the object at a distance of less than 2 cm. A discrimination index was calculated as the difference between the times spent exploring either the novel or familiar object divided by the total time exploring the two objects. A higher discrimination index is considered to reflect greater memory retention for the familiar object. Pharmacological treatment with SM2 and SM4 was performed 30 minutes before training.

[4] = Fmr1-KO adolescent mice, acute treatment

Structure (SMILES) | latency time (homing test) ([1]; Fmr1-KO infant mice) | latency time (homing test) ([1]; WT infant mice) | number of social interactions [2, 4] | number of social interactions ([2]; WT adolescent mice) | discrimination index ([3]; Fmr1-KO adult mice 8 weeks, 0.18 mg/kg BW intraperitoneal 30 minutes before training, FIG. 3B) | discrimination index ([3]; WT adult mice 8 weeks, 0.18 mg/kg BW intraperitoneal 30 minutes before training, FIG. 3B) | latency time (time the mouse pups need to find the mother's litter) ([1]; Fmr1-KO infant mice, 0.25 mg/kg BW intraperitoneal, FIG. 1A) | discrimination index ([3]; Fmr1-KO adult mice 8 weeks, 0.3 mg/kg BW intraperitoneal 30 minutes before training, FIG. 3A) | discrimination index ([3]; WT adult mice 8 weeks, 0.3 mg/kg BW intraperitoneal 30 minutes before training, FIG. 3A)
OCCN1CCN(CCCN2c3ccccc3C=Cc3ccccc32)CC1 [SM2, opipramol] | does not have a beneficial impact | has a negative impact | does not have a beneficial impact | has a negative impact | not normalized | worsened the behaviour | – | – | –
CC(CN(C)C)CN1c2ccccc2Sc2ccccc21 (centres unmarked) [SM4, Trimeprazine] | – | – | normalized | does not modify the social interaction behaviour | – | – | normalized | Discrimination index is the same in treated WT and Fmr-KO mice | has no impact on the behaviour
